# Results: patent US20040029860A1, “Anti-proliferative drugs” (priority 2000, published 2004)
# “Also recorded” adds a separate entry of the source. Like-named read-outs stand apart in the source and are kept apart here.
# Experiments:
# [1] = tested on: different cell-lines; test: mean IC50 over cell lines and therapeutic index
# [2] = tested on: human neuroblastoma (SH-SY5T); test: cell viability, neuroblastoma SH-SY5T; format: cell-based; settings: Homo sapiens
# Procedure: The effect of paroxetine on primary tissue cultures was also evaluated. […] The viability of the cells after treatment with paroxetine was determined by neutral red (NR) technology 24 hr. post treatment.
# (§1) Cyclic antidepressants at varying concentrations (between 10PM and 100 μM) was applied to neuroblastoma SH-SY5T, 3LL lung carcinoma, prostate (LN-CapAp), melanoma B16, and cell viability was determined as described above.
# [3] = tested on: mouse lung sarcoma (3LL); test: cell viability, lung 3LL; format: cell-based; settings: for IC50: Mus musculus, Table 1B, read-out: Cell viability IC50 Lungs Sarcoma 3LL
# Procedure: In another experiment the effect of clotiapine at the same concentrations on the viability of mouse lung carcinoma (3LL) cells was determined.
# as §1
# [4] = tested on: human prostate (LN-CapAp); test: cell viability, prostate LN-Cap; format: cell-based; settings: for inhibition of cell proliferation, LN-Cap (in words): 1 μM-100 μM, androgen dependent, FIG. 2A; for IC50: Table 1A, read-out: Viability IC50 Prostate LN-Cap
# Procedure: The effect of trifluoperazine and flupentixol was studied in two cell-lines of human prostate cancer: androgen dependent (LN-Cap) and androgen independent (PC-3).
# as §1
# [5] = tested on: rat glioblastoma (C6); test: cell viability, glioma C6; format: cell-based; settings: for IC50: Table 1A
# [6] = tested on: human prostate cancer PC-3; test: cell viability, prostate PC-3; format: cell-based; settings: for inhibition of cell proliferation, PC-3 (in words): 1 μM-100 μM, androgen independent, FIG. 2B; for IC50: Table 1A, read-out: Viability IC50 Prostate PC3
# [7] = tested on: mouse melanoma (B-16); test: cell viability, melanoma B16; format: cell-based
# Procedure: as §1
# [8] = tested on: HaCat I5 keratinocytes; test: keratinocyte viability, Neutral red, HaCat I5; format: cell-based, human; settings: for cell viability HaCat I5 (in words): 5-100 μM, 24 hr, Neutral red, FIG. 13B, 15B; for IC50: Homo sapiens, HaCaT
# Procedure: (§2) The drugs were administered at concentrations within the range of 5-100 μM and cell viability was measured 24 hr post-administration by Neutral red staining. The efficiency of the agents against viability of the cell lines was evaluated also by comparison with two commonly used anticancer agents (Doxorubicin and 5-fluorouracil (5-FU)) at equimolar concentrations.
# [9] = tested on: HaCat keratinocytes; test: keratinocyte viability, Neutral red, HaCat; format: cell-based, human; settings: for cell viability HaCat (in words): 5-100 μM, 24 hr, Neutral red, FIG. 13A, 15A; for IC50: Homo sapiens, HaCaT
# Procedure: as §2
# [10] = tested on: mouse embryo whole brain culture; test: primary tissue culture, whole brain; format: cell-based; settings: read-out: IC50 whole brain tissue
# [11] = tested on: human neuroblastoma (SK-N-SH); test: cell viability (neutral red, Almar Blue, Hoechst dye), neuroblastoma SK-N-SH; format: cell-based
# [12] = tested on: p53 mutant; test: p53 mutant expression, western blotting in glioma C6; format: cell-based, rat; settings: 30 and 60 μM, FIG. 8
# [13] = tested on: B16 melanoma; settings: for mean number of metastases: controls 53.8+; for mean lungs weight: day 27, controls 685; for mice with confluent lungs: controls 6/7
# Procedure: Female C57 mice aged 5-7 weeks were used, animals were divided into 3 treatment groups:
# 1. Controls: B16 inoculated vehicle treated;
# Half of the animals were sacrificed after 21 days and half after 27 days. Lungs weight and number of metastases were recorded.
# [14] = tested on: Melanoma B16 cells
# Procedure: Animals were divided into three groups:
# 1. Controls B16 with no therapy;
# Water consumption was registered daily, and calculation of dose was performed according to the mean consumed water. Body weight was registered 3 time/week.
# [15] = tested on: HaCat I5 cells; test: DNA fragmentation, flow cytometry, HaCat I5; format: cell-based, human; settings: basal 10.23%
# Procedure: (§3) DNA fragmentation was determined by flow cytometric analysis of propidium iodide-stained cells according to the method of Vindelov et al Vindelov, L. L., et al. Cytometry.
# [16] = tested on: B16 melanoma cells; format: in vivo
# Procedure: Male C57 black mice aged 5-7 weeks were used. Animals were inoculated with B16 melanoma cells by iv. injection (200,000 cells/mouse) to the tail vein. […]. Body weight was recorded three times weekly during the experiment and survival was registered. Animals were sacrificed 24 days after cell inoculation, and lungs were dissected and weighted.
# [17] = tested on: HaCat cells; test: DNA fragmentation, flow cytometry, HaCat; format: cell-based, human; settings: basal 29%
# Procedure: as §3
# [18] = tested on: mouse Lewis lung carcinoma (3LL); test: in vivo effect on Lewis lung carcinoma (3LL) in mice; settings: 3LL inoculated C57 mice, i.p. daily, thioridazine 15 mg/kg, others 30 mg/kg; for lungs weight / tumor size compared to control group: FIG. 5
# Procedure: Female C57 black mice aged 4 weeks were used in order to evaluate the in vivo effect of cyclic psychotropic agents on tumor cells. In particular, animals were divided into 5 groups (6-8 mice each). Animals were inoculated with mouse Lewis lung carcinoma (3LL, 0.5 million each) by i.v. injection to the tail vein and then treated by i.p. injection daily for 3 weeks with the following different agents
# (5) Paroxetine (30 mg/kg).
# During the treatment period animals were inspected daily and their body weight registered twice a week. […] After the four weeks of treatment the mice were sacrificed and their lungs dissected and weighted.
# [19] = tested on: doxorubicin resistant neuroblastoma cells (SH-SY5T); test: sensitization to doxorubicin, doxorubicin resistant neuroblastoma SH-SY5T; format: cell-based, human; settings: dose dependant, FIG. 6E, 6F
# [20] = tested on: B16 melanoma cells; test: sensitization to doxorubicin, B16 melanoma cells; format: cell-based, mouse; settings: clomipramine 10, […], 20 μM with doxorubicin 1, 2.5, 5 μM; FIG. 6B
# [21] = tested on: MDR B16 melanoma; test: sensitization to doxorubicin, MDR B16 melanoma; format: cell-based, mouse; settings: dose dependant, FIG. 6C
# [22] = tested on: Melanoma B16 cells; remark: listed apart in the source
# Procedure: Mice C57 black females ages 5-7 weeks were used. Mice were inoculated with Melanoma B16 cells and divided randomly (7-8/cage). Animals were divided into three groups:
# 1. Control-B16 cells with no therapy;
# 2. Treatment with doxorubicin 4 mg/kg i.p given once (3 days later).
# [23] = Mus musculus, Table 1A, read-out: Viability IC50 Melanoma B16
# [24] = primary culture, data not shown
# [25] = Mus musculus, Table 1B, read-out: Cell viability IC50 Melanoma 16B
compound,measurement,setting,value
CN(C)CCCN1c2ccccc2CCc2ccccc21 [Imipramine],IC50,[1]; read-out: IC50 Mean +/− SD,38.5 µM
same,IC50,"[2]; Table 1B, read-out: Cell viability IC50 Neuroblastoma SH-SY5T",69 µM
same,IC50,[3],12 µM
CN1CCN(CCCN2c3ccccc3Sc3ccc(C(F)(F)F)cc32)CC1 [Trifluoperazine],"inhibition of cell proliferation, LN-Cap (in words)",[4],effective in inhibition of cell proliferation
same,IC50,"[4]; Homo sapiens, LNCaP",18 µM
same,IC50,[1]; read-out: IC50 Mean ± SD,16.7 ± 1.9 µM
same,IC50,[5]; Rattus norvegicus,14 µM
same,"inhibition of cell proliferation, PC-3 (in words)",[6],effective in inhibition of cell proliferation
same,IC50,[6]; Homo sapiens,19 µM
same,IC50,[7]; [23],16 µM
"O=c1[nH]cc(F)c(=O)[nH]1 [5-FU, 5-fluorouracil]",cell viability HaCat I5 (in words),[8],resistant
same,cell viability HaCat (in words),[9],resistant
O=C(CCCN1CCC(O)(c2ccc(Cl)cc2)CC1)c1ccc(F)cc1 [Haloperidol],IC50,[10]; [24],> 200 µM
CCN1CCCC1CNC(=O)c1cc(S(N)(=O)=O)ccc1OC (stereo not shown) [Sulpiride],Viability IC50 Neuroblastoma SK-N-SH,[11]; Table 1C,Non Toxic
same,Viability IC50 Prostate LN-CapAp,[4]; Table 1C,Non Toxic
same,Viability IC50 Glioma C6,[5]; Table 1C,Non Toxic
same,IC50,[10]; [24],> 200 µM
CSc1ccc2c(c1)N(CCC1CCCCN1C)c1ccccc1S2 (stereo not shown) [Thioridazine],mean decrease in expression of p53 mutant,[12],75%
same,mean number of metastases,"[13]; 10 mg/kg i.p. x3/week, after 21 days",46.1
same,mean lungs weight,[13]; 10 mg/kg,520 mg
same,mice with confluent lungs,[13]; 10 mg/kg,6/7
same,mean number of metastases,"[13]; […] mg/kg i.p. x3/week, after 21 days",28.5
same,mean lungs weight,[13]; […] mg/kg,335 mg
same,mice with confluent lungs,[13]; […] mg/kg,2/7
same,lungs weight,"[13]; after 21 days, vs controls",No difference
same,effective doses,"[13]; parenteral route, B16 melanoma in mice",15 to 20 mg/kg
same,toxic concentrations,"[13]; parenteral route, mice",higher than 30 mg/kg
same,mice with big or conglomerate metastases,"[14]; 20-30 mg/kg per day, after 24 days, same rate as controls",1/7
same,animals with confluent metastases,"[14]; 27 and 30 days, controls 6/11",0/21
same,big or confluent metastases,"[14]; 30-40 mg/kg per day, after 24 days",No big or confluent metastases were found
same,spontaneous death during experiment,[14]; controls 5/18,2/36
same,body weight vs healthy and B16 controls,[14]; in drinking water,No difference
same,apoptosis (DNA fragmentation),[15]; 25 μM,74.5%
same,apoptosis (DNA fragmentation),[15]; 50 μM,76.6%
same,survival rate,[16]; 2.5 mg/kg i.p. 3 times/week,4/5
same,survival rate,[16]; 5 mg/kg i.p. 3 times/week,3/4
same,survival rate,[16]; 10 mg/kg i.p. 3 times/week,5/5
same,lungs weight,"[16]; 20 mg/kg compared to 2.5 mg/kg (p=0.05), 24 days after inoculation",significant decrease
same,survival rate,[16]; 20 mg/kg i.p. 3 times/week,5/5
same,cell viability HaCat I5 (in words),[8],effective in reducing cell viability; also recorded: responded
same,rate of DNA fragmentation,[17]; 25 μM,82.8%
same,rate of DNA fragmentation,[17]; 50 μM,89.3%
same,cell viability HaCat (in words),[9],effective in reducing cell viability; also recorded: responded
same,survival rate during four weeks of treatment,[18],7/7
same,lungs weight / tumor size compared to control group,[18],effective in reducing tumor size
CN1CCN(C2=Nc3ccccc3Sc3ccc(Cl)cc32)CC1 [Clotiapine],IC50,"[8]; mean of the determinations, read-out: IC50 HaCat I5 ME",> 100 µM
same,IC50,"[8]; single determinations, read-out: IC50 HaCat I5",> 100 µM
same,"cell viability, 3LL lung carcinoma (in words)","[3]; 10 μM-100 μM, FIG. 3B, 4B",effective in reducing viability
same,IC50,[3],40 µM
same,IC50,"[9]; mean of the determinations, read-out: IC50 HaCat ME",> 100 µM
same,IC50,"[9]; single determinations, read-out: IC50 HaCat",> 100 µM
same,IC50,[7]; [25],45 µM
CN(C)CCC=C1c2ccccc2CCc2ccccc21 [Amitriptiline],IC50,[1]; read-out: IC50 Mean +/− SD,64 µM
same,IC50,[7]; [25],64 µM
Cc1nc2n(c(=O)c1CCN1CCC(c3noc4cc(F)ccc34)CC1)CCCC2 [Risperidone],IC50,[10],> 200 µM
CNCCC(Oc1ccc(C(F)(F)F)cc1)c1ccccc1 (stereo not shown) [Fluoxetine],potentiation of doxorubicin toxicity (in words),[19],potentiate the toxicity of doxorubicin
same,cell viability HaCat I5 (in words),[8],effective in reducing cell viability
same,cell viability HaCat (in words),[9],effective in reducing cell viability
same,survival rate during four weeks of treatment,[18],5/7
same,lungs weight / tumor size compared to control group,[18],effective in reducing tumor size
CN(C)CCCN1c2ccccc2CCc2ccc(Cl)cc21 [Clomipramine],cell viability in combination with doxorubicin,[20],less than 15 % from control
same,potentiation of doxorubicin toxicity (in words),[19],potentiate the toxicity of doxorubicin
same,cell viability HaCat I5 (in words),[8],effective in reducing cell viability
same,cell viability HaCat (in words),[9],effective in reducing cell viability
same,cell viability in combination with doxorubicin (in words),[21],significantly decreased
same,survival rate during four weeks of treatment,[18],7/7
same,lungs weight / tumor size compared to control group,[18],effective in reducing tumor size
CN1CCN(C2=Nc3cc(Cl)ccc3Nc3ccccc32)CC1 [Clozapine],IC50,[10]; [24],> 200 µM
CN(C)CCCN1c2ccccc2Sc2ccc(Cl)cc21 [Chlorpromazine],IC50,"[11]; Homo sapiens, SK-N-SH, Table 1A",100 µM
same,IC50,[1]; read-out: IC50 Mean ± SD,45.7 ± 33.3 µM
same,IC50,[5]; Rattus norvegicus,22 µM
same,IC50,"[2]; Table 1A, read-out: Viability IC50 Neuroblastoma SH-SY5T",15 µM
same,IC50,[7]; [23],46 µM
OCCN1CCN(CC/C=C2/c3ccccc3Sc3ccc(C(F)(F)F)cc32)CC1 [Flupentixiol],"inhibition of cell proliferation, LN-Cap (in words)",[4],effective in inhibition of cell proliferation
same,IC50,[4],23 µM
same,IC50,"[1]; read-out: IC50 Mean ± SD, Table 1A, mean over the cell lines",18.2 ± 3.2 µM
same,IC50,[5],14 µM
same,"inhibition of cell proliferation, PC-3 (in words)",[6],effective in inhibition of cell proliferation
same,IC50,[6],18 µM
same,IC50,"[7]; Table 1A, read-out: Viability IC50 Melanoma B16",18 µM
COc1cccc2c1C(=O)c1c(O)c3c(c(O)c1C2=O)C[C@@](O)(C(=O)CO)C[C@@H]3O[C@H]1C[C@H](N)[C@H](O)[C@H](C)O1 [doxorubicin],Confluent lung metastases (number of mice),"[22]; Table 2, of 7 total",3
same,Early death (number of mice),"[22]; Table 2, of 7 total",2
same,Non-confluent lung metastases (number of mice),"[22]; Table 2, of 7 total",2
same,number of animals presenting non confluent lungs,"[22]; after 21 days, B16 control 0/7",2/7
same,lungs weight,"[22]; after 21 days, B16 controls 770+/−95",538 ± 137 mg
same,survival / animals died,"[22]; doxorubicin 4 mg/kg i.p. once, thioridazine 25-35 mg/kg/day via drinking water",2/7
same,cell viability HaCat I5 (in words),[8],only the HaCat (non tumorigenic) cells responded
same,cell viability HaCat (in words),[9],same equimolar IC50 levels as for thioridazine
